Measured values published in PubChem BioAssay (NCI).
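The compound was tested at five concentrations on cells cultured in 96-well plates, with a 48-hour exposure period. The concentration for full growth arrest is given as TGI.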

How the values were obtained:
Experiment in all cases: inhibition of tumour cell growth, NCI panel, 48 h
[1] = test system: MDA-N
[2] = test system: COLO 205 colon
[3] = test system: MOLT-4 leukemia
[4] = test system: HCC-2998 colon
[5] = test system: KM12 colon
[6] = test system: 786-0 renal
[7] = test system: OVCAR-8 ovarian
[8] = test system: HT29 colon
[9] = test system: LOX IMVI melanoma
[10] = test system: K-562 leukemia
[11] = test system: SR leukemia
[12] = test system: A549 NSCLC
[13] = test system: UACC-257 melanoma
[14] = test system: HS 578T breast
[15] = test system: NCI-H23 lung
[16] = test system: NCI-H460 lung
[17] = test system: RPMI-8226 leukemia
[18] = test system: SK-OV-3 ovarian
[19] = test system: MALME-3M melanoma
[20] = test system: PC-3 prostate
[21] = test system: CCRF-CEM leukemia
[22] = test system: TK-10 renal
[23] = test system: HCT-15 colon
[24] = test system: HCT-116 colon
[25] = test system: SF-539 CNS
[26] = test system: SNB-19 CNS
[27] = test system: MDA-MB-435
[28] = test system: MCF7 breast
[29] = test system: SF-268 CNS
[30] = test system: ACHN renal
[31] = test system: NCI/ADR-RES ovarian
[32] = test system: SK-MEL-5 melanoma
[33] = test system: M14 melanoma
[34] = test system: SK-MEL-28 melanoma
[35] = test system: NCI-H522 lung
[36] = test system: OVCAR-4 ovarian
[37] = test system: OVCAR-5 ovarian
[38] = test system: UO-31 renal
[39] = test system: HOP-92 NSCLC
[40] = test system: BT-549 breast
[41] = test system: CAKI-1 renal
[42] = test system: SN12C renal
[43] = test system: HOP-62 NSCLC
[44] = test system: UACC-62 melanoma
[45] = test system: A498 renal
[46] = test system: DU-145 prostate
[47] = test system: SW-620 colon
[48] = test system: SNB-75 CNS
[49] = test system: T-47D breast
[50] = test system: U251 CNS
[51] = test system: RXF 393 renal
[52] = test system: SF-295 CNS
[53] = test system: OVCAR-3 ovarian
[54] = test system: EKVX NSCLC
[55] = test system: NCI-H226 lung
[56] = test system: MDA-MB-231 breast
[57] = test system: HL-60(TB) leukemia
[58] = test system: SK-MEL-2 melanoma
[59] = test system: IGROV1 ovarian

CCOC(=O)c1c(N2CCCC2)[nH]c(=O)c(C(c2ccc(N(C)C)cc2)c2c(O)c(C(=O)OCC)c(N3CCCC3)[nH]c2=O)c1O
TGI [1]: > 100 µM | TGI [2]: > 100 µM | TGI [3]: > 100 µM | TGI [4]: > 100 µM | TGI [5]: > 100 µM | TGI [6]: > 100 µM | TGI [7]: > 100 µM | TGI [8]: > 100 µM | TGI [9]: > 100 µM | TGI [10]: > 100 µM | TGI [11]: > 100 µM | TGI [12]: > 100 µM | TGI [13]: > 100 µM | TGI [14]: > 100 µM | TGI [15]: > 100 µM | TGI [16]: > 100 µM | TGI [17]: > 100 µM | TGI [18]: > 100 µM | TGI [19]: > 100 µM | TGI [20]: > 100 µM | TGI [21]: > 100 µM | TGI [22]: > 100 µM | TGI [23]: > 100 µM | TGI [24]: > 100 µM | TGI [25]: > 100 µM | TGI [26]: > 100 µM | TGI [27]: > 100 µM | TGI [28]: > 100 µM | TGI [29]: > 100 µM | TGI [30]: > 100 µM | TGI [31]: > 100 µM | TGI [32]: > 100 µM | TGI [33]: > 100 µM | TGI [34]: > 100 µM | TGI [35]: > 100 µM | TGI [36]: > 100 µM | TGI [37]: > 100 µM | TGI [38]: > 100 µM | TGI [39]: > 100 µM | TGI [40]: > 100 µM | TGI [41]: > 100 µM | TGI [42]: > 100 µM | TGI [43]: > 100 µM | TGI [44]: > 100 µM | TGI [45]: > 100 µM | TGI [46]: > 100 µM | TGI [47]: > 100 µM | TGI [48]: > 100 µM | TGI [49]: > 100 µM | TGI [50]: > 100 µM | TGI [51]: > 100 µM | TGI [52]: > 100 µM | TGI [53]: > 100 µM | TGI [54]: > 100 µM | TGI [55]: > 100 µM | TGI [56]: > 100 µM

c1cc2cc3c4c5c(cc6ccc7cc8cc9c%10c8c8c7c6c5c8c5c%10c(c1C9N1CCOCCOCCOCCOCCOCC1)c2c45)C3 (stereo not given)
TGI [1]: > 100 µM | TGI [2]: > 100 µM | TGI [57]: > 100 µM | TGI [3]: > 100 µM | TGI [4]: > 100 µM | TGI [5]: > 100 µM | TGI [6]: > 100 µM | TGI [7]: > 100 µM | TGI [8]: > 100 µM | TGI [9]: > 100 µM | TGI [10]: > 100 µM | TGI [11]: > 100 µM | TGI [12]: > 100 µM | TGI [13]: > 100 µM | TGI [14]: > 100 µM | TGI [15]: > 100 µM | TGI [16]: > 100 µM | TGI [17]: > 100 µM | TGI [18]: > 100 µM | TGI [19]: > 100 µM | TGI [20]: > 100 µM | TGI [21]: > 100 µM | TGI [22]: > 100 µM | TGI [23]: > 100 µM | TGI [24]: > 100 µM | TGI [25]: > 100 µM | TGI [26]: > 100 µM | TGI [27]: > 100 µM | TGI [28]: > 100 µM | TGI [58]: > 100 µM | TGI [59]: > 100 µM | TGI [29]: > 100 µM | TGI [30]: > 100 µM | TGI [31]: > 100 µM | TGI [32]: > 100 µM | TGI [33]: > 100 µM | TGI [34]: > 100 µM | TGI [35]: > 100 µM | TGI [36]: > 100 µM | TGI [37]: > 100 µM | TGI [38]: > 100 µM | TGI [39]: > 100 µM | TGI [40]: > 100 µM | TGI [42]: > 100 µM | TGI [43]: > 100 µM | TGI [44]: > 100 µM | TGI [46]: > 100 µM | TGI [47]: > 100 µM | TGI [48]: > 100 µM | TGI [49]: > 100 µM | TGI [50]: > 100 µM | TGI [51]: > 100 µM | TGI [52]: > 100 µM | TGI [53]: > 100 µM | TGI [54]: > 100 µM | TGI [55]: > 100 µM | TGI [56]: > 100 µM

CC(C)C1(NC(=O)C2CC3c4cccc5[nH]cc(c45)CC3N(C)C2)OC2(O)C3CCCN3C(=O)C(Cc3ccccc3)N2C1=O (stereo not given)
TGI [1]: > 100 µM | TGI [2]: > 100 µM | TGI [57]: 24.9 µM | TGI [3]: 80.4 µM | TGI [4]: > 100 µM | TGI [5]: 82.2 µM | TGI [6]: > 100 µM | TGI [7]: > 100 µM | TGI [8]: > 100 µM | TGI [9]: 47.7 µM | TGI [11]: 41.2 µM | TGI [12]: > 100 µM | TGI [13]: > 100 µM | TGI [14]: > 100 µM | TGI [15]: > 100 µM | TGI [16]: > 100 µM | TGI [17]: 39.8 µM | TGI [20]: > 100 µM | TGI [21]: > 100 µM | TGI [22]: > 100 µM | TGI [23]: > 100 µM | TGI [24]: > 100 µM | TGI [25]: > 100 µM | TGI [26]: > 100 µM | TGI [27]: > 100 µM | TGI [28]: > 100 µM | TGI [58]: > 100 µM | TGI [59]: > 100 µM | TGI [29]: > 100 µM | TGI [30]: > 100 µM | TGI [31]: > 100 µM | TGI [32]: > 100 µM | TGI [33]: > 100 µM | TGI [34]: > 100 µM | TGI [35]: > 100 µM | TGI [36]: > 100 µM | TGI [37]: > 100 µM | TGI [38]: > 100 µM | TGI [39]: > 100 µM | TGI [40]: > 100 µM | TGI [41]: > 100 µM | TGI [42]: > 100 µM | TGI [43]: > 100 µM | TGI [44]: > 100 µM | TGI [46]: > 100 µM | TGI [47]: > 100 µM | TGI [48]: 86.8 µM | TGI [49]: > 100 µM | TGI [50]: > 100 µM | TGI [52]: > 100 µM | TGI [53]: > 100 µM | TGI [54]: > 100 µM | TGI [56]: 56.7 µM

CCOC(=O)C1CCC(=O)N1C(=O)c1cccc(Cl)c1 (stereo not given)
TGI [1]: > 100 µM | TGI [57]: > 100 µM | TGI [3]: > 100 µM | TGI [5]: > 100 µM | TGI [6]: > 100 µM | TGI [7]: > 100 µM | TGI [8]: > 100 µM | TGI [9]: > 100 µM | TGI [10]: > 100 µM | TGI [11]: > 100 µM | TGI [12]: > 100 µM | TGI [13]: > 100 µM | TGI [14]: > 100 µM | TGI [15]: > 100 µM | TGI [16]: > 100 µM | TGI [17]: > 100 µM | TGI [19]: > 100 µM | TGI [20]: > 100 µM | TGI [21]: > 100 µM | TGI [22]: > 100 µM | TGI [23]: > 100 µM | TGI [24]: > 100 µM | TGI [25]: > 100 µM | TGI [26]: > 100 µM | TGI [27]: > 100 µM | TGI [28]: > 100 µM | TGI [59]: > 100 µM | TGI [29]: > 100 µM | TGI [30]: > 100 µM | TGI [31]: > 100 µM | TGI [32]: > 100 µM | TGI [33]: > 100 µM | TGI [34]: > 100 µM | TGI [35]: > 100 µM | TGI [37]: > 100 µM | TGI [38]: > 100 µM | TGI [39]: > 100 µM | TGI [40]: > 100 µM | TGI [41]: > 100 µM | TGI [42]: > 100 µM | TGI [43]: > 100 µM | TGI [44]: 62.4 µM | TGI [45]: > 100 µM | TGI [46]: > 100 µM | TGI [47]: > 100 µM | TGI [48]: > 100 µM | TGI [49]: > 100 µM | TGI [50]: > 100 µM | TGI [51]: > 100 µM | TGI [52]: > 100 µM | TGI [53]: > 100 µM | TGI [54]: > 100 µM | TGI [55]: > 100 µM | TGI [56]: > 100 µM
